Several values for one entry are separate records, joined by “and”; a condition that tells them apart may be missing. Equal values may be shown once.
How the values were obtained:
Assay in all cases: Broth microdilution MIC, Example 7 (NCL812 and analogues)
MRSA = format: cell-based, Staphylococcus aureus; conditions: 24 hours, duplicate lines per compound
How it was run: (§1)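 Isolates were tested in duplicate, with a third run if replicates differed by more than one two-fold dilution; inoculum purity was checked on sheep blood agar.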

VRE = format: cell-based, Enterococcus spp.; conditions: 24 hours, duplicate lines per compound
How it was run: as §1

Escherichia coli = format: cell-based; conditions: E. coli; 24 hours; duplicate lines per compound
Pseudomonas aeruginosa = format: cell-based; conditions: P. aeruginosa; 24 hours; duplicate lines per compound

SMILES | MIC (μg/ml) at 24 hours, MRSA 1 (MRSA) | MIC (μg/ml) at 24 hours, MRSA 2 (MRSA) | MIC (μg/ml) at 24 hours, VRE 1 (VRE) | MIC (μg/ml) at 24 hours, VRE 2 (VRE) | MIC (μg/ml) at 24 hours, E. coli (Escherichia coli) | MIC (μg/ml) at 24 hours, P. aeruginosa (Pseudomonas aeruginosa)
CCCc1ccc(C=NNC(=N)NN=Cc2ccc(CCC)cc2)cc1.Cl [NCL 121] | 32 µg/mL | 32 µg/mL | 8 µg/mL | 32 µg/mL and 64 µg/mL | >128 µg/mL | >128 µg/mL
Cl.N=C(NN=Cc1ccc(O)c([N+](=O)[O-])c1)NN=Cc1ccc(O)c([N+](=O)[O-])c1 [NCL 122] | >128 µg/mL | >128 µg/mL | >128 µg/mL | >128 µg/mL | >128 µg/mL | >128 µg/mL
Cl.N=C(NN=Cc1ccc(F)c(F)c1)NN=Cc1ccc(F)c(F)c1 [NCL 123] | 16 µg/mL and 32 µg/mL | 4 µg/mL and 8 µg/mL | 4 µg/mL | 4 µg/mL | >128 µg/mL | >128 µg/mL
Cl.N=C(NN=Cc1c(O)ccc2ccccc12)NN=Cc1c(O)ccc2ccccc12 [NCL 124] | >128 µg/mL | >128 µg/mL | >128 µg/mL | >128 µg/mL | >128 µg/mL | >128 µg/mL
COc1ccc(C=NNC(=N)NN=Cc2ccc(OC)c(O)c2)cc1O.Cl [NCL 125] | >128 µg/mL | >128 µg/mL | >128 µg/mL | >128 µg/mL | >128 µg/mL | >128 µg/mL
C#Cc1cccc(C=NNC(=N)NN=Cc2cccc(C#C)c2)c1.Cl [NCL 126] | >128 µg/mL | >128 µg/mL | 4 µg/mL and 8 µg/mL | >128 µg/mL | >128 µg/mL | >128 µg/mL
Cl.N=C(N/N=C/c1ccc(Cl)cc1Cl)N/N=C/c1ccc(Cl)cc1Cl [NCL 127] | >128 µg/mL | >128 µg/mL | >128 µg/mL | >128 µg/mL | >128 µg/mL | >128 µg/mL
Cl.N=C(N/N=C/c1c(F)c(F)c(F)c(F)c1F)N/N=C/c1c(F)c(F)c(F)c(F)c1F [NCL 128] | >128 µg/mL | >128 µg/mL | >128 µg/mL | >128 µg/mL | >128 µg/mL | >128 µg/mL
Cl.N=C(N/N=C/c1ccccc1Br)N/N=C/c1ccccc1Br [NCL 129] | >128 µg/mL | >128 µg/mL | >128 µg/mL | >128 µg/mL | >128 µg/mL | >128 µg/mL
COc1cc(C=NNC(=N)NN=Cc2cc(Br)c(OC)c(OC)c2)cc(Br)c1OC.Cl [NCL 130] | >128 µg/mL | >128 µg/mL | >128 µg/mL | >128 µg/mL | >128 µg/mL | >128 µg/mL
Cl.N=C(NN=Cc1cccc(Br)c1)NN=Cc1cccc(Br)c1 [NCL 131] | >128 µg/mL | >128 µg/mL | 4 µg/mL | >128 µg/mL | >128 µg/mL | >128 µg/mL

Source: patent US10253002B2, “Compounds and methods of treating infections” (Neoculi Pty Ltd., priority 2013, dated 2019)
